Assay results taken from US20140221201A1, “INSECTICIDAL ACTIVE MIXTURES COMPRISING ARYLQUINAZOLINONE COMPOUNDS” (priority 2011, published 2014).

Assays:
Assay type in all cases: in vivo
[1] = test system: Vetch Aphid (Megoura viciae); assay: Test B.1 Control of vetch aphid, sprayed broad bean leaf disks in 24-well microtiter plates; conditions: 5 days
Description: Test B.1 Control of Vetch Aphid (Megoura viciae)
For evaluating control of vetch aphid (Megoura viciae) through contact or systemic means the test unit consisted of 24-well-microtiter plates containing broad bean leaf disks.
The compounds or mixtures were formulated using a solution containing 75% water and 25% DMSO. Different concentrations of formulated compounds or mixtures were sprayed onto the leaf disks at 2.5 μl, using a custom built micro atomizer, at two replications.
For experimental mixtures in these tests identical volumes of both mixing partners at the desired concentrations respectively, were mixed together. After application, the leaf disks were air-dried and 5-8 adult aphids placed on the leaf disks inside the microtiter plate wells. The aphids were then allowed to suck on the treated leaf disks and incubated at about 23±1° C. and about 50±5% RH (relative humidity) for 5 days. Aphid mortality and fecundity was then visually assessed.

[2] = test system: Boll Weevil (Anthonomus grandis); assay: Test B.2 Control of boll weevil, eggs on sprayed insect diet in 24-well microtiter plates; conditions: 5 days
Description: Test B.2 Control of Boll Weevil (Anthonomus grandis)
For evaluating control of boll weevil (Anthonomus grandis) the test unit consisted of 24-well-microtiter plates containing an insect diet and 20-30 A. grandis eggs.
The compounds or mixtures were formulated using a solution containing 75% water and 25% DMSO. Different concentrations of formulated compounds or mixtures were sprayed onto the insect diet at 20 μl, using a custom built micro atomizer, at two replications.
(§1) For experimental mixtures in these tests identical volumes of both mixing partners at the desired concentrations respectively, were mixed together.
After application, microtiter plates were incubated at about 23±1° C. and about 50±5% RH for 5 days. Egg and larval mortality was then visually assessed.

[3] = test system: Green Peach Aphid (Myzus persicae); assay: Test B.3 Control of green peach aphid, systemic, liquid artificial diet under membrane; conditions: 3 days
Excerpt: Test B.3 Control of Green Peach Aphid (Myzus persicae)
For evaluating control of green peach aphid (Myzus persicae) through systemic means the test unit consisted of 96-well-microtiter plates containing liquid artificial diet under an artificial membrane.
The compounds or mixtures were formulated using a solution containing 75% water and 25% DMSO. Different concentrations of formulated compounds or mixtures were pipetted into the aphid diet, using a custom built pipetter, at two replications.
as §1
After application, 5 -8 adult aphids were placed on the artificial membrane inside the microtiter plate wells. The aphids were then allowed to suck on the treated aphid diet and incubated at about 23±1° C. and about 50±5% RH for 3 days. Aphid mortality and fecundity was then visually assessed.

[4] = test system: Yellow fever mosquito (Aedes aegyptii); assay: Test B.4 Control of yellow fever mosquito, curative ultrasonic spraying of larvae in liquid diet; conditions: 2 DAT
Description: Test B.4 Control of Yellow fever mosquito (Aedes aegyptii) Test principle: Curative ultrasonic spraying of larvae in liquid diet
For evaluating control of Aedes aegyptii, the assay was conducted in microtiter plates (MTP's), wherein each well was filled with 0.2 ml of a Aedes aegyptii suspension of 5 to 15 freshly hatched larvae in a liquid diet of 200 ppm yeast in water, prepared directly before spraying.
The compounds were formulated at desired concentration using a solution containing 75% v/v water and 25% v/v DMSO. Different concentrations of formulated compounds were applied at 2.5 μl, using a ultrasonic spraying, at two replications.
The MTPs were sealed with the matching lids in a climatized test chamber at about 28° C.+1° C. and about 80+5% RH (relative humidity) and at 3500+500 lux of fluorescent light.
Assessment was made 2 days after treatment (DAT) using as criterion movement of the larvae. Valid assessment values were at level 0, 50 and 100, wherein 100 indicates no movement, 50 indicates few movement and 0 indicates moderate to high movement.

[5] = test system: Tobacco Budworm (Heliothis virescens); assay: Test B.6 Control of tobacco budworm, eggs on sprayed insect diet in 96-well microtiter plates; conditions: 5 days
Description: Test B.6 Control of Tobacco Budworm (Heliothis virescens)
For evaluating control of tobacco budworm (Heliothis virescens) the test unit consisted of 96-well-microtiter plates containing an insect diet and 15-25 H. virescens eggs.
The compounds or mixtures were formulated using a solution containing 75% water and 25% DMSO. Different concentrations of formulated compounds or mixtures were sprayed onto the insect diet at 10 μl, using a custom built micro atomizer, at two replications.
as §1
After application, microtiter plates were incubated at 28±1° C., 80±5% RH for 5 days. Egg and larval mortality was then visually assessed.

Caenorhabditis elegans = assay: Test B.5 Control of Caenorhabditis elegans, curative ultrasonic spraying of nematodes in liquid diet; conditions: 4 DAT
Description: Test B.5 Control of Caenorhabditis elegans Test principle: Curative ultrasonic spraying of nematodes in liquid diet
For evaluating control of Caenorhabditis elegans the test unit consisted of microtiter plates (MTP), wherein each well was filled with 0.18 ml of a C. Elegans suspension containing 60 to 100 individuals of C. elegans at mixed life stages in a liquid diet.
The compounds were formulated at desired concentration using a solution containing 75% v/v water and 25% v/v DMSO. Different concentrations of formulated compounds were applied at 5 μl by ultrasonic spraying onto the liquid diet, at two replications. After application, the treated microtiterplates were incubated in a climatized test chamber at temperature of about 18+/−1° C. and 70+/−5% RH in the dark.
Assessment was made 4 days after treatment (DAT) using as criterion movement of nematodes. Valid assessment values were at level 0, 50 and 100, wherein 100 indicates no movement, 50 indicates few movement and 0 indicates moderate to high movement.

[6] = alpha cypermethrin alone, 10 ppm
[7] = alphacypermethrin alone, 0.4 ppm

## CC1(C)C(C=C(Cl)Cl)C1C(=O)OC(C#N)c1cccc(Oc2ccccc2)c1 (stereo not drawn) [Alpha cypermethrin, alpha-cypermethrin]
[1]; alpha cypermethrin alone, 2 ppm
  Average control %: 0%
[2]; [6]
  Average control %: 0%
[2]; [7]
  Average control %: 0%
[3]; [6]
  Average control %: 0%
[4]; [6]
  Average control %: 0%
[5]; [7]
  Average control %: 0%

## Cc1cc(F)c(-n2cnc3ccc(F)cc3c2=O)cc1[S+]([O-])CC(F)(F)F (stereo not drawn) [CE.I.31, 6-Fluoro-3-[2-fluoro-4-methyl-5-2(2,2,2-trifluoroethanesulfinyl)-phenyl]-3H-quinazolin-4-one]
[5]; CE.I.31 alone, 2000 ppm
  Average control %: 0%

## Cc1cc(F)c(-n2cnc3ccccc3c2=O)cc1SCC(F)(F)F [CE.I.34, 2-(2,2,2-trifluoroethylsufanyl)-4-(4-oxo-quinazolin-3-yl)-5-fluoro-toluol]
[1]; CE.I.34 alone, 100 ppm
  Average control %: 0%
[2]; CE.I.34 alone, 100 ppm
  Average control %: 0%
[3]; CE.I.34 alone, 4 ppm
  Average control %: 0%
Caenorhabditis elegans; CE.I.34 alone, 100 ppm
  Average control %: 0%

## Cc1cc(F)c(-n2cnc3ccccc3c2=O)cc1[S+]([O-])CC(F)(F)F (stereo not drawn) [CE.I.35, 2-(2,2,2-trifluoroethylsufinyl)-4-(4-oxo-quinazolin-3-yl)-5-fluoro-toluol]
[2]; CE.I.35 alone, 500 ppm
  Average control %: 0%
[2]; CE.I.35 alone, 2500 ppm
  Average control %: 0%
[4]; CE.I.35 alone, 4 ppm
  Average control %: 0%
[4]; CE.I.35 alone, 500 ppm
  Average control %: 0%
[4]; CE.I.35 alone, 2500 ppm
  Average control %: 0%

## CCOCn1c(-c2ccc(Cl)cc2)c(C#N)c(Br)c1C(F)(F)F [Chlorfenapyr, chlorfenapyr]
Caenorhabditis elegans; chlorfenapyr alone, 10 ppm
  Average control %: 0%

## CCC(C)(C)C(=O)OC1=C(c2ccc(Cl)cc2Cl)C(=O)OC12CCCCC2 [Spirodiclofen, spirodiclofen]
[5]; spirodiclofen alone, 3.2 ppm
  Average control %: 0%

## Cc1cc(C)c(C2=C(OC(=O)CC(C)(C)C)C3(CCCC3)OC2=O)c(C)c1 [Spiromesifen, spiromesifen]
[2]; spiromesifen alone, 500 ppm
  Average control %: 0%

## abamectin
[4]; abamectin alone, 2 ppm
  Average control %: 0%

## spinosad
[4]; spinosad alone, 2 ppm
  Average control %: 0%
